From PubChem BioAssay (NCI)
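Results reflect a 48-hour exposure of cells in 96-well plates to compound at five concentrations. GI50 = concentration required for 50% inhibition of growth. Definition used: TGI = concentration required for complete inhibition of growth.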

Columns and labels:
Experiment in all cases: NCI-60 cell line screen, 48 h
SF-268 CNS = system: SF-268 CNS
MDA-MB-435 = system: MDA-MB-435
A549 NSCLC = system: A549 NSCLC
UACC-62 melanoma = system: UACC-62 melanoma
CCRF-CEM leukemia = system: CCRF-CEM leukemia
HCT-15 colon = system: HCT-15 colon
HS 578T breast = system: HS 578T breast
SR leukemia = system: SR leukemia
M14 melanoma = system: M14 melanoma
U251 CNS = system: U251 CNS
NCI/ADR-RES ovarian = system: NCI/ADR-RES ovarian
KM12 colon = system: KM12 colon
NCI-H226 lung = system: NCI-H226 lung
786-0 renal = system: 786-0 renal
LOX IMVI melanoma = system: LOX IMVI melanoma
SNB-75 CNS = system: SNB-75 CNS
NCI-H522 lung = system: NCI-H522 lung
SK-OV-3 ovarian = system: SK-OV-3 ovarian
TK-10 renal = system: TK-10 renal
UO-31 renal = system: UO-31 renal
UACC-257 melanoma = system: UACC-257 melanoma
MALME-3M melanoma = system: MALME-3M melanoma
SF-539 CNS = system: SF-539 CNS
NCI-H460 lung = system: NCI-H460 lung
PC-3 prostate = system: PC-3 prostate
HT29 colon = system: HT29 colon
SW-620 colon = system: SW-620 colon
SNB-19 CNS = system: SNB-19 CNS
OVCAR-5 ovarian = system: OVCAR-5 ovarian
CAKI-1 renal = system: CAKI-1 renal
BT-549 breast = system: BT-549 breast
SN12C renal = system: SN12C renal
HCT-116 colon = system: HCT-116 colon
EKVX NSCLC = system: EKVX NSCLC
SK-MEL-28 melanoma = system: SK-MEL-28 melanoma
MDA-MB-468 breast = system: MDA-MB-468 breast
NCI-H23 lung = system: NCI-H23 lung
MDA-MB-231 breast = system: MDA-MB-231 breast
MOLT-4 leukemia = system: MOLT-4 leukemia
HL-60(TB) leukemia = system: HL-60(TB) leukemia
SK-MEL-5 melanoma = system: SK-MEL-5 melanoma
SK-MEL-2 melanoma = system: SK-MEL-2 melanoma
RPMI-8226 leukemia = system: RPMI-8226 leukemia
ACHN renal = system: ACHN renal
OVCAR-8 ovarian = system: OVCAR-8 ovarian
IGROV1 ovarian = system: IGROV1 ovarian
HOP-62 NSCLC = system: HOP-62 NSCLC
OVCAR-4 ovarian = system: OVCAR-4 ovarian
DU-145 prostate = system: DU-145 prostate
RXF 393 renal = system: RXF 393 renal
COLO 205 colon = system: COLO 205 colon
HCC-2998 colon = system: HCC-2998 colon
SF-295 CNS = system: SF-295 CNS
K-562 leukemia = system: K-562 leukemia
T-47D breast = system: T-47D breast
A498 renal = system: A498 renal
OVCAR-3 ovarian = system: OVCAR-3 ovarian
HOP-92 NSCLC = system: HOP-92 NSCLC

COc1cc2c3c(n(CCCN4CCOCC4)c(=O)c2cc1OC)-c1nc2c(cc1C3=O)OCO2
GI50 (SF-268 CNS): 892 nM
TGI (SF-268 CNS): > 100000 nM
GI50 (MDA-MB-435): 828 nM
TGI (MDA-MB-435): > 100000 nM
GI50 (A549 NSCLC): 3430 nM
TGI (A549 NSCLC): > 100000 nM
GI50 (UACC-62 melanoma): 117 nM
TGI (UACC-62 melanoma): > 100000 nM
GI50 (CCRF-CEM leukemia): 35.1 nM
TGI (CCRF-CEM leukemia): 1720 nM
GI50 (HCT-15 colon): 1240 nM
TGI (HCT-15 colon): > 100000 nM
GI50 (HS 578T breast): 25300 nM
TGI (HS 578T breast): > 100000 nM
GI50 (SR leukemia): 60.6 nM
TGI (SR leukemia): > 49000 nM
GI50 (M14 melanoma): 250 nM
TGI (M14 melanoma): > 100000 nM
GI50 (U251 CNS): 109 nM
TGI (U251 CNS): 3780 nM
GI50 (NCI/ADR-RES ovarian): 327 nM
TGI (NCI/ADR-RES ovarian): 3680 nM
GI50 (KM12 colon): > 53900 nM
TGI (KM12 colon): > 100000 nM
GI50 (NCI-H226 lung): 495 nM
TGI (NCI-H226 lung): > 33000 nM
GI50 (786-0 renal): 593 nM
TGI (786-0 renal): 29400 nM
GI50 (LOX IMVI melanoma): 170 nM
TGI (LOX IMVI melanoma): 1470 nM
GI50 (SNB-75 CNS): 254 nM
TGI (SNB-75 CNS): > 64500 nM
GI50 (NCI-H522 lung): 277 nM
TGI (NCI-H522 lung): 15700 nM
GI50 (SK-OV-3 ovarian): 217 nM
TGI (SK-OV-3 ovarian): 4000 nM
GI50 (TK-10 renal): > 100000 nM
TGI (TK-10 renal): > 100000 nM
GI50 (UO-31 renal): 499 nM
TGI (UO-31 renal): > 100000 nM
TGI (UACC-257 melanoma): > 100000 nM
GI50 (MALME-3M melanoma): 1750 nM
TGI (MALME-3M melanoma): > 100000 nM
GI50 (SF-539 CNS): 226 nM
TGI (SF-539 CNS): 1330 nM
GI50 (NCI-H460 lung): 77.2 nM
TGI (NCI-H460 lung): 2350 nM
GI50 (PC-3 prostate): 2090 nM
TGI (PC-3 prostate): > 100000 nM
GI50 (HT29 colon): 442 nM
TGI (HT29 colon): 11600 nM
GI50 (SW-620 colon): 477 nM
TGI (SW-620 colon): > 100000 nM
GI50 (SNB-19 CNS): 271 nM
TGI (SNB-19 CNS): > 100000 nM
GI50 (OVCAR-5 ovarian): 4910 nM
TGI (OVCAR-5 ovarian): > 100000 nM
GI50 (CAKI-1 renal): 159 nM
TGI (CAKI-1 renal): > 100000 nM
GI50 (BT-549 breast): 619 nM
TGI (BT-549 breast): 8430 nM
GI50 (SN12C renal): 2720 nM
TGI (SN12C renal): > 100000 nM
GI50 (HCT-116 colon): 416 nM
TGI (HCT-116 colon): > 100000 nM
GI50 (EKVX NSCLC): 1970 nM
TGI (EKVX NSCLC): > 100000 nM
GI50 (SK-MEL-28 melanoma): > 52000 nM
TGI (SK-MEL-28 melanoma): > 100000 nM
GI50 (MDA-MB-468 breast): 130 nM
TGI (MDA-MB-468 breast): 510 nM
GI50 (NCI-H23 lung): 185 nM
TGI (NCI-H23 lung): 1520 nM
GI50 (MDA-MB-231 breast): 2380 nM
TGI (MDA-MB-231 breast): 5620 nM
GI50 (MOLT-4 leukemia): 58.1 nM
TGI (MOLT-4 leukemia): 16000 nM
GI50 (HL-60(TB) leukemia): 1250 nM
TGI (HL-60(TB) leukemia): > 100000 nM
GI50 (SK-MEL-5 melanoma): 180 nM
TGI (SK-MEL-5 melanoma): 610 nM
GI50 (SK-MEL-2 melanoma): > 100000 nM
TGI (SK-MEL-2 melanoma): > 100000 nM
GI50 (RPMI-8226 leukemia): 341 nM
TGI (RPMI-8226 leukemia): > 56400 nM
GI50 (ACHN renal): 150 nM
TGI (ACHN renal): > 100000 nM
GI50 (OVCAR-8 ovarian): 2920 nM
TGI (OVCAR-8 ovarian): > 100000 nM
GI50 (IGROV1 ovarian): > 100000 nM
TGI (IGROV1 ovarian): > 100000 nM
GI50 (HOP-62 NSCLC): 51 nM
TGI (HOP-62 NSCLC): 748 nM
GI50 (OVCAR-4 ovarian): > 100000 nM
TGI (OVCAR-4 ovarian): > 100000 nM
GI50 (DU-145 prostate): 418 nM
TGI (DU-145 prostate): > 100000 nM
GI50 (RXF 393 renal): 1200 nM
GI50 (COLO 205 colon): 1360 nM
TGI (COLO 205 colon): > 100000 nM
GI50 (HCC-2998 colon): 1860 nM
TGI (HCC-2998 colon): > 100000 nM
GI50 (SF-295 CNS): 55.6 nM
TGI (SF-295 CNS): 1700 nM
GI50 (K-562 leukemia): 177 nM
TGI (K-562 leukemia): > 82900 nM
GI50 (T-47D breast): 185 nM
TGI (T-47D breast): > 100000 nM
GI50 (A498 renal): > 69200 nM
TGI (A498 renal): > 100000 nM
GI50 (OVCAR-3 ovarian): 4610 nM
TGI (OVCAR-3 ovarian): > 100000 nM
GI50 (HOP-92 NSCLC): 2870 nM
TGI (HOP-92 NSCLC): > 100000 nM
